Assay results as given in EP4781984A1 (Beyang Therapeutics Co., Ltd., priority 2023, dated 2025).
Converted amounts (≈) assume the structure as drawn.

Assays:
VEGFR2 = target: T1, VEGFR2 (Homo sapiens, UniProt P35968); test: Kinase inhibitory activity, Mobility Shift Assay (VEGFR2); format: biochemical
T1 construct: purchased Carna 08-191
Protocol: (§1) Assay for Inhibitory Activity of Compounds Against VEGFR and EGFR Kinases
(§2) This assay directly monitors the inhibitory activity of compounds on kinase phosphorylation by measuring non-phosphorylated and phosphorylated substrates in the kinase reaction using Mobility Shift Assays/IMAP™ analysis. Table 2. Reagents and Instruments
(§3) Kinase and DTT were added to 1X kinase buffer to form a 2.5X kinase solution; 10 µL of the 2.5X kinase solution was transferred to a 384-well reaction plate, and 1X kinase buffer was added to the negative control wells. The plate was incubated at room temperature for 10 minutes; FAM-labeled peptide, MgCl2, ATP, and other reagents were added to 1X kinase buffer to form a 2.5X substrate solution; 10 µL of the above 2.5X substrate solution was transferred to the 384-well reaction plate; the plate was incubated at 28°C for varying times, and then 25 µL of stop solution was added to the 384-well reaction plate to terminate the reaction. Conversion rate data were read on a CaliperEZ Reader II. […] IC50 values were fitted using XLFit excel add-in version 5.4.0.8. Y = Bottom + (Top−Bottom)/(1 + […]) [formula]
(§4) X is the log value of compound concentration, Y is the inhibition rate (% inhibition).

melanin = test: Compound binding to melanin; format: in vitro ADME; conditions: cuttlefish (Sepia officinalis), melanin suspension (1 mg/mL), percentage of free drug (not bound to melanin), 2 µM compound, melanin 1 mg/mL in PBS pH 7.4, 37°C
Summary of the method: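 Compound at 2 µM final incubated with 1 mg/mL Sepia melanin in PBS pH 7.4, 37°C, 2 hours with shaking; blank in PBS with 0.1% BSA. Supernatant concentration by LC-MS/MS. Fb = 100 − (Ctest/Ccontrol) × 100%.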

EGFR = target: T2, EGFR (Homo sapiens, UniProt P00533); test: Kinase inhibitory activity, Mobility Shift Assay (EGFR); format: biochemical
T2 construct: purchased Carna 08-115
Summary of the method: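 Each kinase pre-incubated 10 min at room temperature, then FAM-labelled peptide with MgCl2 and ATP added; reaction at 28 °C for kinase-dependent times before stop. Substrate conversion read by mobility shift; IC50 from a four-parameter fit of % inhibition against log concentration.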

[1] = Thermodynamic solubility test; format: physicochemical; conditions: buffer solution, aqueous buffer, thermodynamic from solid; thermodynamic solubility, room temperature, 8 hours shaking; buffers pH 2.0, 6.5, 7.4 used, pH of the tabulated value not given
Summary of the method: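 Samples sonicated 10 min, shaken 8 h at room temperature, re-sonicated and centrifuged at 13000 rpm for 15 min. Supernatant recentrifuged and analysed by LC-MS, with concentrations quantified against a 3–5 point calibration curve.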

VEGFR3 = target: T3, VEGFR3 (Homo sapiens, UniProt P35916); test: Kinase inhibitory activity, Mobility Shift Assay (VEGFR3); format: biochemical
T3 construct: purchased Invitrogen PV4129
Protocol: as §1, §2, §3, §4

VEGFR1 = target: T4, VEGFR1 (Homo sapiens, UniProt P17948); test: Kinase inhibitory activity, Mobility Shift Assay (VEGFR1); format: biochemical
T4 construct: purchased Invitrogen PR6731B
Protocol: as §1, §2, §3, §4

[2] = target: T5, VEGFR2 autophosphorylation (pVEGFR2) in HUVEC cells (Homo sapiens, UniProt P35968); test: Inhibition of VEGF-induced VEGFR2 phosphorylation in HUVEC cells (ELISA); format: cell-based; conditions: 50 ng/mL human VEGF, compound 1 hour
T5 construct: endogenous in cells; host or cells: HUVEC
Description: Assay for Compound Inhibition of VEGFR2 Phosphorylation in HUVEC Cells
VEGF is a potent growth factor that promotes angiogenesis and vascular permeability. Vascular endothelial growth factor receptor 2 (VEGFR2) is the primary receptor for VEGF-induced endothelial cell signaling. Upon ligand binding, VEGFR2 undergoes autophosphorylation and is activated. The primary function from VEGFR2 signaling is to induce blood vessel formation during development and after tissue injury, and to bypass blocked vessels. Pathologically, VEGF and VEGFR2 are involved in tumor angiogenesis and vascular leakage. They are considered major players in many different cancers and ocular diseases accompanied by pathological neovascularization. This assay uses ELISA to measure the compound's ability to inhibit VEGF-induced VEGFR2 autophosphorylation (pVEGFR2) in HUVEC cells. Table 7. Reagents and Instruments
Before cell seeding, cells reached 60%-80% confluency in cell culture flasks. The cell suspension was diluted with pre-warmed complete medium to 4.5×10^6 cells/mL. 80 microliters of cell suspension was added to all wells of a 96-well cell plate (Corning-3599); incubated overnight at 37°C and 5% CO2. Compound powder was dissolved in DMSO to 10 mM and stored in a nitrogen cabinet. Compound dilution master plate: In a 96-well V-bottom plate (Axygen- WIPP02280), reference compound Ponatinib or test compound concentrations were added, starting from 5 mM (5 microliters of 10 mM compound solution plus 5 microliters DMSO) with 3-fold serial dilutions for a total of 8 concentration points. […] 20 microliters of diluted compound was transferred from the intermediate plate to the cell plate. The cell plate was then incubated at 37°C and 5% CO2 for 1 hour. […] It was gently shaken for 30 seconds, and the absorbance was measured within 30 minutes using a SpectraMax® 340 PC 384 Absorbance Microplate Reader, reading the optical density value at 450 nm. […]
All other values are expressed as a percentage of these controls (inhibition rate). […]

[3] = Ophthalmic formulations based on polyethylene glycol series vehicles: composition and state (Example 7); format: physicochemical; conditions: Table 15: 10 mg/mL; Polyethylene glycol 400 10, Hydroxypropyl-β-cyclodextrin 10, Gellan Gum Gelrite 0.3, Poloxamer 188 1, Tris solution and Citric acid
Description: In the following ophthalmic formulation preparation examples, "solution" refers to a clear, transparent liquid without visible insoluble matter. "Near-clear solution" refers to a liquid that appears close to a solution upon visual observation but may contain a small amount of insoluble particles or have a slightly opaque color. "Suspension" refers to a liquid that is visibly turbid or opaque. "Gel" refers to a completely or partially gel-like solid.
Example 7: Ophthalmic Formulations Based on Polyethylene Glycol Series Vehicles
According to the formulation composition shown in the tables below, weigh the compound powder, add it to polyethylene glycol 400, and sonicate until dissolved or nearly dissolved (heat to 50°C if necessary). Add this to a Tris-HCl buffer solution containing hydroxypropyl-β-cyclodextrin, poloxamer 188, and gellan gum (or other viscosity modifier), vortex to mix, and prepare into an eye drop formulation.

T4 sequence (P17948 27-1338): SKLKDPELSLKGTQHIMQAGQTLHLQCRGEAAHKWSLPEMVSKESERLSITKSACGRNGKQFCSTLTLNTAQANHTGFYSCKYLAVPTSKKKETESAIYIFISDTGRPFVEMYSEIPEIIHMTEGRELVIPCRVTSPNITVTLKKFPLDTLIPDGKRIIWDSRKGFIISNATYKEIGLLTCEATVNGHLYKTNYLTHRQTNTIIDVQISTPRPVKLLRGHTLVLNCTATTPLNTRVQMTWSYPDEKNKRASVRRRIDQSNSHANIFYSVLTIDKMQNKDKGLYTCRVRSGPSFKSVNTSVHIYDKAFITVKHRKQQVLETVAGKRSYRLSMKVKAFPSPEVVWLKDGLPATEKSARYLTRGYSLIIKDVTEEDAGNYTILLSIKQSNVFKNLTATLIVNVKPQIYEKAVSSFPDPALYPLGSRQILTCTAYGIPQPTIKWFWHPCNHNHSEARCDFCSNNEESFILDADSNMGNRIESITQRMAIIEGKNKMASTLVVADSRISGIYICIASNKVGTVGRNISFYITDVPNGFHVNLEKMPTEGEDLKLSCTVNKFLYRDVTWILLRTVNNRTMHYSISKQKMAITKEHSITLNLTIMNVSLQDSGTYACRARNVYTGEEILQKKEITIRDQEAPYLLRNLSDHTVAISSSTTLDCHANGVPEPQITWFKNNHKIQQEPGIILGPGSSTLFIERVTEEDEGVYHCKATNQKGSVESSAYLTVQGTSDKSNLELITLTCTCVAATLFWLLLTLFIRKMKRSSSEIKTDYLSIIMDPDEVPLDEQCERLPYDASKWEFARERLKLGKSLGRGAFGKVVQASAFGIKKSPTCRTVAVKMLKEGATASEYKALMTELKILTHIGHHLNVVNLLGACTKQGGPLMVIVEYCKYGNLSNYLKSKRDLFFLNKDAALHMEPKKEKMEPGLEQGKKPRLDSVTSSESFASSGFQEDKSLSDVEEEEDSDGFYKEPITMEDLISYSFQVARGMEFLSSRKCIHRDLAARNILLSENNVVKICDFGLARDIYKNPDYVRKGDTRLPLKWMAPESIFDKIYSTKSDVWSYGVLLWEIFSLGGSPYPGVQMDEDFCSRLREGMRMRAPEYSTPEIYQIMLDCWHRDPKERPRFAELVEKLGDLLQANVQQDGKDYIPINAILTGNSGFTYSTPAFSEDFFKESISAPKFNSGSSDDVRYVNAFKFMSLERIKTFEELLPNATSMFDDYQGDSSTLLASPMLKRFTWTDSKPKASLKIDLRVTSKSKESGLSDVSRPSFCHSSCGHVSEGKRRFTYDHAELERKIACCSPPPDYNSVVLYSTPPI
T2 sequence (P00533 25-1210): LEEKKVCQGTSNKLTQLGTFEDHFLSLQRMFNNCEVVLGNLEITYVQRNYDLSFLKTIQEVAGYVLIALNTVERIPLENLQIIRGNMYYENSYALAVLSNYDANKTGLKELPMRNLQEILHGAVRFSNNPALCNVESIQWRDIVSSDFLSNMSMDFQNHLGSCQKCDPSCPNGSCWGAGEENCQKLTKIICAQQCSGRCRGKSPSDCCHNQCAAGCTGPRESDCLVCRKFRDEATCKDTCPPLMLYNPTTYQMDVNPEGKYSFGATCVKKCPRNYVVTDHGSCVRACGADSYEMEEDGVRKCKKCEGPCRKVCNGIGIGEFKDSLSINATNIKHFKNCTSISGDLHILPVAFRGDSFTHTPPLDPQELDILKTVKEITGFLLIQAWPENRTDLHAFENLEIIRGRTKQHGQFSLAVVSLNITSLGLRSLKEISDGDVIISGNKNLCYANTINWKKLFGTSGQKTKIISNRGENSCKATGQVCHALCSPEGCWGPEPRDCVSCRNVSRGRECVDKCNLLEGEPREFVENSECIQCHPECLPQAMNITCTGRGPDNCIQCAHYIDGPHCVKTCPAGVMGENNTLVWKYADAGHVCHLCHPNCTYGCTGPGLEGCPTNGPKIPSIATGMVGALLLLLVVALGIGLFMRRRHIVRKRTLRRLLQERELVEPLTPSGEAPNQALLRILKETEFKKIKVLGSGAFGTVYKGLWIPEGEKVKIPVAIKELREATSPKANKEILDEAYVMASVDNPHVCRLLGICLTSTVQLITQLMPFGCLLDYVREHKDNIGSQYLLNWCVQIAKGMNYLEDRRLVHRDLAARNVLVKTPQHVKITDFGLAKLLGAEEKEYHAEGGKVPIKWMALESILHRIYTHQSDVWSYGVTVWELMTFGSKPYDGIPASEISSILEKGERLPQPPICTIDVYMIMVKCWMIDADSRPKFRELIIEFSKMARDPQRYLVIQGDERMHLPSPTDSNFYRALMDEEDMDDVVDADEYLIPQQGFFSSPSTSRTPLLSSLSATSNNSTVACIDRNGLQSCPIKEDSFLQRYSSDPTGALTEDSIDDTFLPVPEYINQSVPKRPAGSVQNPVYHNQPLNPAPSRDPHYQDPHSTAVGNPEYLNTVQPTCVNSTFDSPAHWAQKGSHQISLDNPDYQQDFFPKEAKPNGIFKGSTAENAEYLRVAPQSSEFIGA
T3 sequence (P35916 25-1363): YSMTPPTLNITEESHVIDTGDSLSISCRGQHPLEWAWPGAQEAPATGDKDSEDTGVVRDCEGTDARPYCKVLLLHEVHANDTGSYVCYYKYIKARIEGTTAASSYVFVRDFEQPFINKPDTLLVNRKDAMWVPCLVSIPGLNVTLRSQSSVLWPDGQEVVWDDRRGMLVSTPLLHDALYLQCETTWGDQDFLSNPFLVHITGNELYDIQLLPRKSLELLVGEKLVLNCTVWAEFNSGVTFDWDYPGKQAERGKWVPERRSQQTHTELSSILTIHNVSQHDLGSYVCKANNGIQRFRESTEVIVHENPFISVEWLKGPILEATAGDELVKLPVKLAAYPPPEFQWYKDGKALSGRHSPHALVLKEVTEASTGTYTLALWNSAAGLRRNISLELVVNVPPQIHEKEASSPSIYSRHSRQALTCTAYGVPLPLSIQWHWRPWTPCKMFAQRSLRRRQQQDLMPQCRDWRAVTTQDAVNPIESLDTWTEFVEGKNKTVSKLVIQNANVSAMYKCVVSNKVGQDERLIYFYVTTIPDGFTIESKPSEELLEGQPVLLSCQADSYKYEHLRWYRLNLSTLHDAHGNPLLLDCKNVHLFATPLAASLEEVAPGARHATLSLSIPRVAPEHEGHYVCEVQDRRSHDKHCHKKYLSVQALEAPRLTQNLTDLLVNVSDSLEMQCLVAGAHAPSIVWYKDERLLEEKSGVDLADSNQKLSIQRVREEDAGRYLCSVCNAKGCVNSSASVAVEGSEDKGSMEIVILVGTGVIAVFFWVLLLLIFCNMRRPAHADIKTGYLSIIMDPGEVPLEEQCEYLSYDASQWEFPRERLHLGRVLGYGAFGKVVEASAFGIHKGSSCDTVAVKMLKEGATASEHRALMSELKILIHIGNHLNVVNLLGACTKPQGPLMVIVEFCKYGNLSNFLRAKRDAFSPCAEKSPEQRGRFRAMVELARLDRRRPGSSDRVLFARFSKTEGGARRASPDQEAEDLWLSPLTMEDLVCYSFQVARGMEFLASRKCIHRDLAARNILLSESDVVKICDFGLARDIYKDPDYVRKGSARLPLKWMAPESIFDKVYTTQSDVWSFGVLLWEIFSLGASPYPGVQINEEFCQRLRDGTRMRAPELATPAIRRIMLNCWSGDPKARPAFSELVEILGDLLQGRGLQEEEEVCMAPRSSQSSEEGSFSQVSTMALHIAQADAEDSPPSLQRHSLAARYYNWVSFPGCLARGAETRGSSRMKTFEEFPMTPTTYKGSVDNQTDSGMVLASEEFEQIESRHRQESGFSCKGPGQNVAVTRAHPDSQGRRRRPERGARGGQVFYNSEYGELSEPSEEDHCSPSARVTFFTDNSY

CNC(=O)c1ccccc1Sc1ccc2c(/C=C/c3ccc(OCC4CCNC4)cn3)n[nH]c2c1 (stereo not shown) [Compound I-7]
IC50 (VEGFR2): 1 to 10 nM
fraction unbound at 2 h, 2 µM (melanin): > 0.05
IC50 (EGFR): 6000 to 60000 nM
solubility at 8 h [1]: 294 µg/mL (≈ 605 µM)
IC50 (VEGFR3): 1 to 10 nM
IC50 (VEGFR1): ≤ 1 nM

CCNC(=O)c1cc(F)ccc1Sc1ccc2c(/C=C/c3ccc(CN(CC)CC)cn3)n[nH]c2c1 [Compound I-88]
IC50 (VEGFR2): 1 to 10 nM
fraction unbound at 2 h, 2 µM (melanin): > 0.05
IC50 (EGFR): 6000 to 60000 nM
solubility at 8 h [1]: 546 µg/mL (≈ 1080 µM)
IC50 [2]: ≤ 1 nM

CNC(=O)c1ccccc1Sc1ccc2c(cnn2-c2ccc(OCCN3CCCC3)cn2)c1 [Compound I-29, N-methyl-2-[(1-{5-[2-(pyrrolidin-1-yl)ethoxy]pyridin-2-yl}-1H-indazol-5-yl)sulfanyl]benzamide]
IC50 (VEGFR2): > 100 nM
IC50 (EGFR): > 60000 nM
IC50 (VEGFR3): > 100 nM
IC50 (VEGFR1): > 100 nM

CNC(=O)c1ccccc1Sc1ccc2c(/C=C/c3ccc(OCC4CCN(C)C4)cn3)n[nH]c2c1 (stereo not shown) [Compound I-1]
IC50 (VEGFR2): ≤ 1 nM
fraction unbound at 2 h, 2 µM (melanin): > 0.05
IC50 (EGFR): 6000 to 60000 nM
solubility at 8 h [1]: 14.2 µg/mL (≈ 28.4 µM)
IC50 (VEGFR3): ≤ 1 nM
IC50 (VEGFR1): ≤ 1 nM

CNC(=O)c1ccccc1Sc1ccc2c(NC(=O)NCCN3CCN(C)CC3)n[nH]c2c1 [Compound I-31]
IC50 (VEGFR2): > 100 nM
fraction unbound at 2 h, 2 µM (melanin): 0.01 to 0.05
IC50 (EGFR): > 60000 nM
solubility at 8 h [1]: 542 µg/mL (≈ 1160 µM)
IC50 (VEGFR3): > 100 nM
IC50 (VEGFR1): > 100 nM

CNC(=O)c1ccccc1Sc1ccc2c(/C=C/c3ccccn3)ncn2c1 [Compound I-26, N-methyl-2-({1-[(E)-2-(pyridin-2-yl)ethenyl]imidazo[1,5-a]pyridin-6-yl}thio)benzamide]
IC50 (VEGFR2): > 100 nM
fraction unbound at 2 h, 2 µM (melanin): 0.01 to 0.05
IC50 (EGFR): > 60000 nM
solubility at 8 h [1]: 142 µg/mL (≈ 367 µM)
IC50 (VEGFR3): > 100 nM
IC50 (VEGFR1): > 100 nM

CNC(=O)c1ccccc1Sc1ccn2c(/C=C/c3ccccn3)ncc2c1 [Compound I-27, N-methyl-2-({3-[(E)-2-(pyridin-2-yl)ethenyl]imidazo[1,5-a]pyridin-7-yl}thio)benzamide]
IC50 (VEGFR2): > 100 nM
fraction unbound at 2 h, 2 µM (melanin): 0.01 to 0.05
IC50 (EGFR): 6000 to 60000 nM
IC50 (VEGFR3): > 100 nM
IC50 (VEGFR1): > 100 nM

CCN(CC)CCc1ccc(/C=C/c2n[nH]c3cc(Sc4ccccc4C(=O)NC4CC4)ccc23)nc1 [Compound I-77, N-cyclopropyl-2-({3-[(E)-2-{5-[2-(diethylamino)ethyl]pyridin-2-yl}ethenyl]-1H-indazol-6-yl}sulfanyl)benzamide]
State Description: pH [3]: ~5.5
State Description: state [3]: gel
IC50 (VEGFR2): ≤ 1 nM
fraction unbound at 2 h, 2 µM (melanin): 0.01 to 0.05
IC50 (EGFR): 6000 to 60000 nM
IC50 [2]: ≤ 1 nM

CNC(=O)c1ccccc1Sc1ccc2c(/C=C/c3ccc(OC[C@H]4CCN(C)C4)cn3)n[nH]c2c1 [Compound I-37]
IC50 (VEGFR2): ≤ 1 nM
fraction unbound at 2 h, 2 µM (melanin): 0.01 to 0.05
IC50 (EGFR): 6000 to 60000 nM
IC50 (VEGFR3): 1 to 10 nM
IC50 (VEGFR1): ≤ 1 nM

CNC(=O)c1ccccc1Sc1ccc2c(/C=C/c3ccc(OCCN4CCN(C)CC4)cn3)n[nH]c2c1 [Compound I-4]
IC50 (VEGFR2): ≤ 1 nM
fraction unbound at 2 h, 2 µM (melanin): > 0.05
solubility at 8 h [1]: 413 µg/mL (≈ 781 µM)
IC50 (VEGFR3): ≤ 1 nM
IC50 (VEGFR1): ≤ 1 nM

O=C(O)c1ccccc1Sc1ccn2c(/C=C/c3ccccn3)ncc2c1 [Compound I-28, 2-({3-[(E)-2-(pyridin-2-yl)ethenyl]imidazo[1,5-a]pyridin-7-yl}thio)benzoic acid]
IC50 (VEGFR2): > 100 nM
fraction unbound at 2 h, 2 µM (melanin): > 0.05
IC50 (EGFR): ≤ 600 nM
IC50 (VEGFR3): > 100 nM
IC50 (VEGFR1): > 100 nM

CNC(=O)c1ccccc1Sc1ccc2c(/C=C/c3ccc(OCCC4CCN(C)CC4)cn3)n[nH]c2c1 [Compound I-5]
IC50 (VEGFR2): ≤ 1 nM
fraction unbound at 2 h, 2 µM (melanin): 0.01 to 0.05
solubility at 8 h [1]: 177 µg/mL (≈ 335 µM)
IC50 (VEGFR3): ≤ 1 nM
IC50 (VEGFR1): ≤ 1 nM

CNC(=O)c1ccccc1Sc1ccc2c(/C=C/c3ccc(OCC4CCCN4C)cn3)n[nH]c2c1 (stereo not shown) [Compound I-2, N-methyl-2-((3-((E)-2-(5-((1-methylpyrrolidin-2-yl)methoxy)pyridin-2-yl)ethenyl)-1H-indazol-6-yl)thio)benzamide]
IC50 (VEGFR2): ≤ 1 nM
fraction unbound at 2 h, 2 µM (melanin): 0.01 to 0.05
IC50 (EGFR): 6000 to 60000 nM
solubility at 8 h [1]: 28.8 µg/mL (≈ 57.6 µM)
IC50 (VEGFR3): 1 to 10 nM
IC50 (VEGFR1): ≤ 1 nM
